Data reported in patent US20030133958A1, “External agent for the skin and whitening agent” (priority 2000, published 2003).

Columns and labels:
[1] = tested on: B-16 melanoma cells; assay: Test for evaluating melanogenesis-inhibitory function (cell-whitening degree) in cell culture systems using B-16 melanoma cells; assay type: cell-based; set-up: key to Whitening degree: ++: The whitening degree is higher than that observed when adding 450 μg/mL of vitamin C-magnesium phosphate.; +: The whitening degree is almost identical to that observed when adding 450 μ g/mL of vitamin C-magnesium phosphate.; ±: The whitening degree is not higher than that observed when adding 450 μg/mL of vitamin C-magnesium phosphate, but higher than that of the control.; −: The whitening degree is almost identical to that observed for the control
Text: (§1) The B-16 melanoma cell is one having an ability of producing melanin and therefore, the cells naturally grown by cell culture blacken. If a substance capable of inhibiting melanogenesis is present in the cell growth system during the cell growth, the blackening of the cells is inhibited and they relatively whiten. Accordingly, the whitening effect of each candidate substance can be evaluated on the basis of the degree of whiteness observed when adding a test sample relative to the degree of blackness observed for a control. […] To evaluate this cytotoxicity, the cell survival rate observed when adding a test sample to the system is compared with that observed for the control. Thus, the substantial whitening effect can be evaluated on the basis of the results of these cell-whitening test and cytotoxicity test.
An example of such a method for evaluating the melanogenesis-inhibitory function in a cell culture system using B-16 melanoma cells comprises, for instance, the steps of dispensing 2 ml/well of a culture medium to each well of a 6-well plate, inoculating a desired amount of melanoma cells to the medium, cultivating the cells by allowing the medium to stand at 37° C. and a carbon dioxide concentration of 5%. On the following day, a solution of a test sample is added and mixed with the culture medium to a predetermined concentration and the cell cultivation is continued. After 5 days from the initiation of the cultivation, the culture medium is replaced with fresh one and the solution of the test sample is again added thereto. On the next day, the medium is removed to thus recover the cells, followed by washing them with PBS (phosphate-buffered saline) and the determination of the degree of whiteness to thus evaluate the whitening effect of the test sample. In this connection, the melanogenesis-inhibitory function is evaluated by comparing the results thus obtained with the degree of whiteness observed when the same procedures are repeated using the vitamin C-magnesium phosphate as a known whitening agent instead of the test sample solution (positive control) and that observed when the procedures are repeated without addition of any test sample (control).
A culture medium was dispensed to wells of a 6-well plate (2 mL/well each), followed by inoculation of a desired amount of B-16 melanoma cells on each well, allowing the wells to stand at 37° C. and 5% CO2 to thus cultivate the cells. On the day subsequent thereto, a sample solution prepared was added to the wells with stirring and the cultivation was continued. The culture medium was replaced with fresh one on the 5th day from the initiation of the cultivation and the sample solution was again added to the wells. On the next day, the culture medium was removed to recover the cells, followed by washing them with PBS (phosphate buffered physiological saline) and then evaluation of the cell-whitening degree In this respect, the melanogenesis-inhibitory function was evaluated by comparing the cell-whitening degree thus obtained with that observed when the same procedures used above were repeated except that vitamin C-magnesium phosphate as a known whitening agent (positive control) was substituted for the sample solution used above and that observed when the same procedures used above were repeated except that any sample was not added (control), according to the following evaluation criteria.
The evaluation criteria for the cell-whitening degree are as follows: […]

[2] = tested on: B-16 melanoma cells; assay: Cell-survival rate (cytotoxicity) in B-16 melanoma cell culture; assay type: cell-based
Text: as §1
The cell-survival rate at each added sample concentration can be determined according to the following formula
Cell-Survival Rate (%)=(A/B)×100
Wherein A represents the viable cell count observed for the system to which a sample is added and B represents the number of cells observed for the control system.

[3] = Solubility (oil / water)
[4] = concentration 2 ppm, B-16 melanoma cells
[5] = concentration 4 ppm, B-16 melanoma cells
[6] = concentration 6 ppm, B-16 melanoma cells
[7] = concentration 8 ppm, B-16 melanoma cells
[8] = concentration 10 ppm, B-16 melanoma cells
[9] = concentration 15 ppm, B-16 melanoma cells
[10] = concentration 25 ppm, B-16 melanoma cells
[11] = concentration 50 ppm, B-16 melanoma cells

oil-solubility, in words [3] | Compound | Whitening degree [1, 4] | Whitening degree [1, 5] | Whitening degree [1, 6] | Whitening degree [1, 7] | Whitening degree [1, 8] | Whitening degree [1, 9] | Whitening degree [1, 10] | Whitening degree [1, 11] | cell-survival rate at the added concentration showing a whitening degree almost identical to vitamin C-magnesium phosphate at 450 ppm ([2]; mouse) | Cell-Survival Rate ([2]; mouse, 2 ppm) | Cell-Survival Rate ([2]; mouse, 4 ppm) | Cell-Survival Rate ([2]; mouse, 6 ppm) | Cell-Survival Rate ([2]; mouse, 8 ppm) | Cell-Survival Rate ([2]; mouse, 10 ppm) | Cell-Survival Rate ([2]; mouse, 15 ppm) | Cell-Survival Rate ([2]; mouse, 25 ppm) | Cell-Survival Rate ([2]; mouse, 50 ppm) | Cell-Survival Rate ([2]; mouse, 100 ppm) | Cell-Survival Rate ([2]; mouse, 200 ppm) | further results
oil-soluble | C[C@H]1[C@H](C)CC[C@]2(CO)CC[C@]3(C)C(=CC[C@@H]4[C@@]5(C)CC[C@H](O)C(C)(C)[C@@H]5CC[C@]43C)[C@H]12 [Uvaol, uvaol] | − | − | − | ± | + | + | + | + | 99-100% | 100% | 100% | 100% | 100% | 100% | 100% | 90% | 82% | 71% | 61% | 
 | CC1(C)CC[C@]2(C(=O)O)CC[C@]3(C)C(=CC[C@@H]4[C@@]5(C)C[C@@H](O)[C@H](O)C(C)(C)[C@@H]5CC[C@]43C)[C@@H]2C1 [Purified maslinic acid 1, maslinic acid] | ± | + | ++ | ++ | ++ |  |  |  |  |  |  |  |  |  |  |  |  |  |  | whitening effect, times that observed for vitamin C-magnesium phosphate ([1]; from Table 1, positive control vitamin C-magnesium phosphate 450 ppm): about 110 times; added concentration at which the whitening effect is almost identical to that of the positive control ([1]; positive control vitamin C-magnesium phosphate 450 ppm, B-16 melanoma cells): 4 ppm; Cell-Survival Rate [2, 4]: 100%; Cell-Survival Rate [2, 5]: 100%; Cell-Survival Rate [2, 6]: 100%; Cell-Survival Rate [2, 7]: 79%; Cell-Survival Rate [2, 8]: 57%
oil-soluble | CC1(C)CC[C@]2(CO)CC[C@]3(C)C(=CC[C@@H]4[C@@]5(C)CC[C@H](O)C(C)(C)[C@@H]5CC[C@]43C)[C@@H]2C1 [Erythrodiol, erythrodiol] | ± | ± | ± | ± | ± | ± | + | + | 99-100% | 100% | 100% | 100% | 100% | 100% | 100% | 100% | 97% | 85% | 72% | 
oil-soluble | C=C(C)[C@@H]1CC[C@]2(C(=O)O)CC[C@]3(C)[C@H](CC[C@@H]4[C@@]5(C)CC[C@H](O)C(C)(C)[C@@H]5CC[C@]43C)[C@@H]12 [Betulinic acid, betulinic acid] | − | ± | ± | ± | + | + | + | + | 99-100% | 100% | 100% | 100% | 100% | 99% | 83% | 76% | 69% | 60% | 51% | 

Compound | oil-solubility, in words [3] | Whitening degree [1, 4] | Whitening degree [1, 5] | Whitening degree [1, 6] | Whitening degree [1, 7] | Whitening degree [1, 8] | Whitening degree [1, 9] | Whitening degree [1, 10] | Whitening degree [1, 11] | cell-survival rate at the added concentration showing a whitening degree almost identical to vitamin C-magnesium phosphate at 450 ppm ([2]; mouse) | Cell-Survival Rate ([2]; mouse, 2 ppm) | Cell-Survival Rate ([2]; mouse, 4 ppm) | Cell-Survival Rate ([2]; mouse, 6 ppm) | Cell-Survival Rate ([2]; mouse, 8 ppm) | Cell-Survival Rate ([2]; mouse, 10 ppm) | Cell-Survival Rate ([2]; mouse, 15 ppm) | Cell-Survival Rate ([2]; mouse, 25 ppm) | Cell-Survival Rate ([2]; mouse, 50 ppm) | Cell-Survival Rate ([2]; mouse, 100 ppm) | Cell-Survival Rate ([2]; mouse, 200 ppm) | further results
C=C(C)[C@@H]1CC[C@]2(CO)CC[C@]3(C)[C@H](CC[C@@H]4[C@@]5(C)CC[C@H](O)C(C)(C)[C@@H]5CC[C@]43C)[C@@H]12 [Betulin, betulin] | oil-soluble | − | − | ± | ± | ± | + | + | + |  |  |  |  |  |  |  |  |  |  |  | Cell-Survival Rate [2, 4]: 100%; Cell-Survival Rate [2, 5]: 100%; Cell-Survival Rate [2, 6]: 100%; Cell-Survival Rate [2, 7]: 100%; Cell-Survival Rate [2, 8]: 100%; Cell-Survival Rate [2, 9]: 100%; Cell-Survival Rate [2, 10]: 100%; Cell-Survival Rate [2, 11]: 100%
CC1(C)CC[C@]2(C(=O)O)CC[C@]3(C)C(=CC[C@@H]4[C@@]5(C)C[C@@H](O)[C@H](O)C(C)(C)[C@@H]5CC[C@]43C)[C@@H]2C1 [maslinic acid] | oil-soluble |  |  |  |  |  |  |  |  |  |  |  |  |  |  |  |  |  |  |  | solubility in water, in words [3]: hardly soluble in water
